Test results published in patent US9539256B2 (THE BOARD OF REGENTS OF THE UNIVERSITY OF TEXAS SYSTEM, priority 2012, dated 2017).

How the values were obtained:
type I PKA holoenzyme = assay: PKA counter screening, type I holoenzyme; format: biochemical; settings: 25 μM compound
Method: (§1) Kinase activity of the type I and II PKA holoenzyme are measured spectrophotometrically in a 96-well plate with a coupled enzyme assay as described previously (Cook et al. (1982) Biochemistry 21: 5794-5799). In this assay, the formation of ADP is coupled to the oxidation of NADH by the pyruvate kinase/lactate dehydrogenase reactions so the reaction rate can be determined by following the oxidation of NADH, reflected by a decrease in absorbance at 340 nm. […] Reactions are pre-equilibrated at room temperature and initiated by adding the Kemptide substrate (final concentration 0.26 mM).

type II PKA holoenzyme = assay: PKA counter screening, type II holoenzyme; format: biochemical; settings: 25 μM compound
Method: as §1

EPAC1 [1] = target: T1, EPAC1 (Homo sapiens, UniProt O95398); assay: Rap1 activation assay in HEK293/EPAC1 cells; format: cell-based
T1 sequence (O95398 1-923): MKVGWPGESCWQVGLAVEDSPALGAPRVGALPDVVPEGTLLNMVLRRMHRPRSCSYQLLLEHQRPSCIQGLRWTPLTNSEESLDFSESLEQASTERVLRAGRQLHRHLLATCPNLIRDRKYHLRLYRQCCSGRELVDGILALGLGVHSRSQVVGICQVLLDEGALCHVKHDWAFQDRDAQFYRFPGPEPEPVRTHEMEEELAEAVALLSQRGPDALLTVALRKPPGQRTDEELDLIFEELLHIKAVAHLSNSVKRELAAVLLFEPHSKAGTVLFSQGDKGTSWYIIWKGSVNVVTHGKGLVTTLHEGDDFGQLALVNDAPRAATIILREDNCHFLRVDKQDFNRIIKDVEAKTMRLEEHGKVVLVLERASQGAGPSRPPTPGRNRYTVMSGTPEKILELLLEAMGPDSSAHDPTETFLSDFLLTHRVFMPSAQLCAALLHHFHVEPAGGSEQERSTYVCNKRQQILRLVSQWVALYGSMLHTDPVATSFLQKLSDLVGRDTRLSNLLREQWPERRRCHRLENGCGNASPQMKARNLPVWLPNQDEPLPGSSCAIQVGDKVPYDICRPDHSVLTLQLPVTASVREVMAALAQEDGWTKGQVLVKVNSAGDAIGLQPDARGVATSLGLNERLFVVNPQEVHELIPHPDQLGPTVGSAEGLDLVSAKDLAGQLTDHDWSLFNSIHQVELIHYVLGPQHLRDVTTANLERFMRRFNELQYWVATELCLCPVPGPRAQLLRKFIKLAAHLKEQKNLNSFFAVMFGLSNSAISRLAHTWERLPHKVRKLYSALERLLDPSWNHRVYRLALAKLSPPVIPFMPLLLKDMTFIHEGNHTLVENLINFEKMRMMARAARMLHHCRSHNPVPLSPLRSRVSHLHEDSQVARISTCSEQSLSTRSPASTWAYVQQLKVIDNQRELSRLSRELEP
Method: (§2) FIGS. 9A-9B. Effects of EPAC2-specific antagonists on 007-AM-mediated cellular activation of Rap1. […] GTP-bound Rap1 (Rap1GTP) obtained by a Ral-GDSRBD-GST pull-down assay and total cellular Rap1 were detected by immunoblotting with Rap1-specific antibody. […] At test was used to determine statistical significance (*P<0.05).
(§3) Cellular activation of Rap1 was determined by pull-down of lysates derived from human vascular smooth muscle cell and HEK293 cells stably expressing EPAC1 or EPAC2 employing Ral-GDS-RBD-GST affinity beads as described earlier (Mei and Cheng (2005) Molecular Biosystems 1: 325-331).

EPAC1 [2] = target: T1, EPAC1; assay: Rap1-GDP exchange (GEF) activity assay, EPAC1
EPAC2 [3] = target: T2, EPAC2 (Homo sapiens, UniProt Q8WZA2); assay: Rap1 activation assay in HEK293/EPAC2 cells; format: cell-based; settings: for 007-AM induced Rap1 activation: HEK293/EPAC2 cells, pre-treatment with 10 μM compound
T2 construct: HEK293 cells that ectopically express full-length EPAC2 proteins; expressed in transfected cells; host or cells: HEK293
Method: as §2, §3

EPAC1 [4] = target: T1, EPAC1; assay: Phosphorylation of Akt in HEK293/EPAC1 cells; format: cell-based; settings: stimulation with 007-AM
Method: (§4) FIG. 10. Effect of ESI-09 on EPAC-mediated PKB phosphorylation in HEK293/EPAC1, HEK293/EPAC2, and human vascular smooth muscle (hVSMC) cells. Serum-starved HEK293/EPAC1, HEK293/EPAC2, and hVSMC cells with or without pretreatment of […] ESI-09 were stimulated with 10 μM 007-AM. Cell lysates were subjected to Western blot analysis as described under “Experimental Procedures” using anti-phospho-Ser473-specific (PKB-P473) and anti-phospho-Thr308-specific (PKB-P308) PKB antibodies.
(§5) Cellular proteins from cell lysates treated with various reagents were separated by SDS-PAGE and transferred to polyvinylidene difluoride membrane. The levels of Akt activation were probed by immuno-blotting analyses using anti-phosphate T308 PKB antibodies (1:1000) and anti-phosphate S473 PKB antibodies (1:1000). At least three independent experiments were performed for each Western blot.

AsPC-1 and PANC-1 cells = assay: Cell adhesion assay on collagen I matrix; format: cell-based; settings: stimulation with 10 μM 007-AM
Method: FIG. 13 ESI-09 inhibits EPAC1-mediated adhesion of PDA cells on collagen I. AsPC-1 and PANC-1 cells were stimulated with vehicle or 10 μM 007-AM after treatment with the indicated concentrations of ESI-09 for 5 minutes. Bars represent mean±s.d.
It has been recently reported that EPAC1 is over-expressed in pancreatic adenocarcinoma (Lorenz et al. (2008) Pancreas 37: 102-103). However, the functional role of EPAC1 elevation in this neoplasm is not clear. The inventors sought to employ ESI-09 to determine the role of EPAC1 signaling in pancreatic cancer. […] In order to determine if the observed impact on cell migration is EPAC1 specific, the effect of suppressing EPAC1 expression on AsPC-1 and PANC-1 migration using RNAi was examined. […] To further determine how ESI-09 inhibits PDA cell migration and invasion, a cell adhesion assay was performed using a collagen I matrix. […] To determine the in vivo anti-metastatic effect of ESI-09, MIA PaCa-2 stably expressing luciferase were orthotopically implanted into the pancreas of athymic nude mice. The mice were randomly divided into two groups and treated with vehicle or ESI-09 (50 mg/kg per day, oral gavage), respectively. The growth and metastasis of the tumors were monitored by weekly bioluminescence imaging using the IVIS bioluminescence imaging system.

EPAC2 [5] = target: T2, EPAC2; assay: Phosphorylation of Akt in HEK293/EPAC2 cells; format: cell-based; settings: stimulation with 007-AM
Method: as §4, §5

EPAC2 [6] = target: T3, EPAC2 (Mus musculus, UniProt Q9EQZ6); assay: 8-NBD-cAMP competition binding to EPAC2
T3 sequence (Q9EQZ6 1-1011): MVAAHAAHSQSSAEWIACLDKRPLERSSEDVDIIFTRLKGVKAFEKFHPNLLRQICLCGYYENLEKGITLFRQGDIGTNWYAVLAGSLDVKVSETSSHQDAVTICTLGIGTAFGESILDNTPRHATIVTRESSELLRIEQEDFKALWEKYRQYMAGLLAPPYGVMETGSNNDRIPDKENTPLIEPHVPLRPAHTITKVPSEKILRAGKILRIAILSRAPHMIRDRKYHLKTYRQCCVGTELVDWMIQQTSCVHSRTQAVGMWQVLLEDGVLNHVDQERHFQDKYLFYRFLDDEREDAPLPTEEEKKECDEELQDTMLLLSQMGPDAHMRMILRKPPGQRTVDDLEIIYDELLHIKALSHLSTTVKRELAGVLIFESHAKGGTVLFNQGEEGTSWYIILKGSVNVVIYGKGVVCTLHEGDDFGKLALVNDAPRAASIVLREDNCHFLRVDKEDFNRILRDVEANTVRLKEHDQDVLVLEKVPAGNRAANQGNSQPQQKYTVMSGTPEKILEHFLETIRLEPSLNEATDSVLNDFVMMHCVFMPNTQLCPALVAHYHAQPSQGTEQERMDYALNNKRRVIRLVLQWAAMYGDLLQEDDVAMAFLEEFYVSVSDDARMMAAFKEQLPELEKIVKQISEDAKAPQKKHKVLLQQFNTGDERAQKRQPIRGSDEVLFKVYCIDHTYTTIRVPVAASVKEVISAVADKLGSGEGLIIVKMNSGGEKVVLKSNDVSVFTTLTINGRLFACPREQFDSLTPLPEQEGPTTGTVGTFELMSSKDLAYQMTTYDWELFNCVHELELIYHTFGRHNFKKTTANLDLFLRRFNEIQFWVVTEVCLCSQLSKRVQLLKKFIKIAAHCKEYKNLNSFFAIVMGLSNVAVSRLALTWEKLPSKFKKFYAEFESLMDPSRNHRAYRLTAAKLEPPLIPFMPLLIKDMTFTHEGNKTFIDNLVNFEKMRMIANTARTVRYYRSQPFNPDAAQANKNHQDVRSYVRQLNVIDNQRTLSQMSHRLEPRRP
Method: Primary screen is performed in black 96-well or 384-well microplates. As an example, 50 nM EPAC2 solution is prepared in 20 mM Tris buffer, pH 7.5, containing 150 mM NaCl, 1 mM EDTA, and 1 mM […]. […] Sample is dispensed into plate and test compounds added from 96-well mother plates. […] Fluorescence intensity signal from 8-NBD was recorded at room temperature (rt) before and after tested compounds are added using SpectaMaxM2 microplate reader (Molecular Devices, Silicon Valley, Calif., USA) with excitation/emission wavelengths set at 470/540 nm.

T2 sequence (Q8WZA2 whole entry, species assumed): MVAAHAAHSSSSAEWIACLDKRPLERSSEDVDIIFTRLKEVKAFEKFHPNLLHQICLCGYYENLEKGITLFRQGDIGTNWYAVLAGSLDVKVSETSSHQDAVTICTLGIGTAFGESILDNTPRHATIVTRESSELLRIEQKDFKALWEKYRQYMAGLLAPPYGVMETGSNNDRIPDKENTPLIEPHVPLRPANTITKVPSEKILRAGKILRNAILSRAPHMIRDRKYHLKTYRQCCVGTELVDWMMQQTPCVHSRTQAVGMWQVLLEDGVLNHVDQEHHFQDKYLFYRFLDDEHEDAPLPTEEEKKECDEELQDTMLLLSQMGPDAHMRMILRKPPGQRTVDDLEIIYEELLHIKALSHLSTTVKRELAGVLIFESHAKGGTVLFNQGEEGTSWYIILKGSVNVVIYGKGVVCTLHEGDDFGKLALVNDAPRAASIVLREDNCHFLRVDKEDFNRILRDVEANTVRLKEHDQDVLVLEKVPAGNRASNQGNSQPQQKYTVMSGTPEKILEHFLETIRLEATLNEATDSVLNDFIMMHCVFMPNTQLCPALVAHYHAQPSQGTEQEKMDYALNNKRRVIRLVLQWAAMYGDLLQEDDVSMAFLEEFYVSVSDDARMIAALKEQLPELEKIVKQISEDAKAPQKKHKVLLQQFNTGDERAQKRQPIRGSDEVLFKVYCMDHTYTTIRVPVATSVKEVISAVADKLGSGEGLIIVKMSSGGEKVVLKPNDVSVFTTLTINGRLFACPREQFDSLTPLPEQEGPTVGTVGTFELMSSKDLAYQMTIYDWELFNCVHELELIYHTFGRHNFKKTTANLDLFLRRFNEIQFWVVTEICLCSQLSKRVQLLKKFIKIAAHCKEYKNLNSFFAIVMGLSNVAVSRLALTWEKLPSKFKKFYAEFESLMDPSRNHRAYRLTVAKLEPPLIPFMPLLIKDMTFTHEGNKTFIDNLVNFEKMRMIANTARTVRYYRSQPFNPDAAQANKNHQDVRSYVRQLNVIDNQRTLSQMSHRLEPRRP

Cc1ccc(S(=O)(=O)c2c(C)cc(C)cc2C)cc1 [ESI-05]
cAMP-induced type I PKA holoenzyme activation (type I PKA holoenzyme): did not significantly alter | cAMP-induced type II PKA holoenzyme activation (type II PKA holoenzyme): did not significantly alter | 007-AM induced Rap1 activation (EPAC1 [1]): ineffective | suppressing EPAC1 GEF activity (EPAC1 [2]; cAMP-mediated Rap1-GDP exchange): completely ineffective | EPAC1 IC50 (EPAC1 [2]; suppressing EPAC1 GEF activity, 25 μM cAMP): NMA* | 007-AM induced Rap1 activation (EPAC2 [3]): significant reduction

CO[C@@H]1[C@@H]2OP(=O)(OCOC(C)=O)OC[C@H]2O[C@H]1n1c(Sc2ccc(Cl)cc2)nc2c(N)ncnc21 (stereo partly drawn) [Compound 007-AM, 8-(4-Chlorophenylthio)-2′-O-methyladenosine-3′,5′-cyclic monophosphate, acetoxymethyl ester, reference compound]
Akt phosphorylation for both T308 and S473 (EPAC1 [4]): increase | cell adhesion (AsPC-1 and PANC-1 cells): increase | Akt phosphorylation for both T308 and S473 (EPAC2 [5]): increase | fraction of GTP-bound cellular Rap1 (EPAC2 [3]; HEK293/EPAC2 cells treated with 007-AM): increase

Cc1ccc(C)c(CSc2nc(C3CCCCC3)c(C#N)c(=O)[nH]2)c1 [ESI-08]
Relative Potency (RA) (EPAC2 [6]; RA = IC50, cAMP/IC50, compound): 4.5 | IC50 (EPAC2 [6]; competing with 8-NBD-cAMP in binding EPAC2, read-out: Apparent IC50): 8.7 ± 1.1 µM | 007-AM induced Rap1 activation (EPAC2 [3]): much less effective

O=S(=O)(NCCNC/C=C/c1ccc(Br)cc1)c1cccc2cnccc12 [Compound H89, reference compound]
cAMP-induced type I PKA holoenzyme activation (type I PKA holoenzyme): blocked the type I or II PKA activities completely | cAMP-induced type II PKA holoenzyme activation (type II PKA holoenzyme): blocked the type I or II PKA activities completely
